Experimental data taken from paper PMC5458211, “Mitochondrial VDAC1-based peptides: Attacking oncogenic properties in glioblastoma” (Oncotarget, 2017).
Non-standard residues stand in square brackets, D forms with d. Residues, ends and D or L forms follow the SMILES beside them.

Columns and labels:
Ki-67 = Ki-67 immunohistochemistry of xenograft tumors; assay type: in vivo, human U-87MG in nude mice; settings: s.c. U-87MG tumors, 20 μM intra-tumoral, n=5
Experimental: Figure 3 VDAC1-based peptides inhibit tumor growth, cell proliferation, and invasion in a glioblastoma xenograft mice model A. Graphical representation of the xenograft experiment protocol used. U-87MG cells (3×10^6/mouse) were inoculated into male nude mice as described in Materials and Methods available online in Supplemental information. B, C. […] The calculated average tumor volumes are presented as means ± SE (n=5) (* p≤0.05, ** p≤0.01). C. The volume of peptide-treated tumors is presented as % of control for each indicated time. Results = mean ± SE (n=5) (* p≤0.05, ** […]). […] E. Quantitative analysis of Ki-67 positive cells. Results = mean ± SE (n=5) (*** p<0.001). […]
100% DMSO and then diluted 20-fold with sterile DDW into three groups (6 animals/group) and treated every to reach a concentration of 25 mg/ml in a final DMSO third day with DMSO (1.44%), Retro-Tf-D-LP4 (10 concentration of 5%. PLGA (50 mg) was dissolved in mg/kg) or Retro-Tf-D-LP4 (10 mg/kg) encapsulated by acetone (1 ml). […] Tumor volume was analyzed using VivoQuant 2.10 10 ml of aqueous solution containing 1% PVA (w/v). […]
(Calbiochem, UK). […] Band intensities were analyzed xenografts were injected 20 µl per tumor (2 points) every by densitometry using Multi Gauge software (Fujifilm) […]

U-87MG cells = assay: Apoptosis by acridine orange/ethidium bromide staining, U-87MG; assay type: cell-based, human; settings: 3 h, mean ± SE (n=3), DMSO control 9.8 ± 5.3
Experimental: Figure 2 Mode of action of VDAC1-based peptides – interacting with- and detaching HK, releasing Cyto c, decreasing ATP level and inducing apoptosis A. Purified HK-II was fluorescently labeled using the NanoTemper protein-labeling Kit BLUE. […] Then, 3-5 μl of the samples were loaded into MST-grade glass capillaries and thermophoresis was measured using a Monolith-NT115 apparatus, as described in Materials and methods available online in Supplemental information. […] The final DMSO concentration in control and peptide-treated cells was 0.07%. Fixed cells were visualized using confocal microscopy (Olympus 1×81), as described in Materials and Methods available online in Supplemental information. Arrows indicate cells with diffusion of HK-I-GFP. C. […] Anti-GAPDH antibodies were used to verify the cytosolic extracts. The levels of HK in the supernatants were quantified and are presented as relative units. D. D-ΔN-Ter-Antp induces mitochondrial inner membrane depolarization analyzed as described in Materials and Methods available online in Supplemental information. U-87MG cells were incubated for 3 h with the indicated concentrations of D-ΔN-Ter-Antp or with FCCP (1 h, 25 μM). Cells then were analyzed for Δψ using TMRM. Δψ is presented as percentage of control. Results = mean ± SE (n=3) (*** p≤0.001, ****p ≤0.0001). […] Cellular ATP levels are presented as percentage of control. Results = mean ± SE (n=2 or 3) (* p≤0.05, ** p≤0.01). […] Release of Cyto c from the mitochondria was analyzed by immunostaining using anti-Cyto c antibodies and confocal microscopy (Olympus 1×81) as described in Materials and Methods available online in Supplemental information. Arrows indicate cells showing diffusion of Cyto c. […] Arrows and arrowheads indicate cells with membrane blebbing (early apoptotic state) and late apoptotic states, respectively. Quantification of apoptosis in control and peptide's treated cells are presented bellow the images. Results = mean ± SE (n=3) (** p≤0.01, *** p≤0.001, **** p≤0.0001).
Cells (6×10^5 /ml) were incubated in 500 μl serum-free medium with the peptide of interest for 6 h at 37°C in the presence of 5% CO2. The cells were then trypsinized, centrifuged (1500xg, 5 min), washed with PBS and analyzed for cell death using propidium iodide (PI) staining and flow cytometer (Beckton-Dickinson, San Jose, CA) and BD CellQuest Pro software. Apoptotic cell death was also analyzed by PI and annexin V-FITC staining, and by acridine orange and ethidium bromide staining and light microscopy (Olympus LX2-KSP).

SMILES | decrease in Ki-67-positive cell numbers (Ki-67) | Apoptosis, % (U-87MG cells; 3 μM) [%] | Apoptosis, % (U-87MG cells; 5 μM) [%]
CC[C@@H](C)[C@@H](NC(=O)[C@@H](CCCCN)NC(=O)[C@H](NC(=O)[C@@H](CCC(N)=O)NC(=O)[C@@H](CCCNC(=N)N)NC(=O)[C@@H](CC(C)C)NC(=O)CNC(=O)[C@@H](Cc1ccccc1)NC(=O)CNC(=O)[C@@H](Cc1ccc(O)cc1)NC(=O)CNC(=O)[C@@H](CCCCN)NC(=O)[C@H](NC(=O)[C@@H](Cc1ccccc1)NC(=O)[C@H](NC(=O)[C@@H](CC(=O)O)NC(=O)[C@H](N)CCCNC(=N)N)C(C)C)[C@H](C)O)[C@H](C)CC)C(=O)N[C@H](Cc1c[nH]c2ccccc12)C(=O)N[C@H](Cc1ccccc1)C(=O)N[C@H](CCC(N)=O)C(=O)N[C@H](CC(N)=O)C(=O)N[C@H](CCCNC(=N)N)C(=O)N[C@H](CCCNC(=N)N)C(=O)N[C@H](CCSC)C(=O)N[C@H](CCCCN)C(=O)N[C@H](Cc1c[nH]c2ccccc12)C(=O)N[C@H](CCCCN)C(=O)N[C@H](CCCCN)C(=O)O [D-ΔN-Ter-Antp] (H-[dR][dD][dV][dF][dT][dK]G[dY]G[dF]G[dL][dR][dQ][dI][dK][dI][dW][dF][dQ][dN][dR][dR][dM][dK][dW][dK][dK]-OH; N-terminus and C-terminus assumed) | about 45% | 45.4 ± 2.6 | 63.4 ± 3.8
CC[C@H](C)[C@H](NC(=O)[C@H](C)NC(=O)[C@@H](N)Cc1c[nH]cn1)C(=O)N[C@@H](Cc1ccc(O)cc1)C(=O)N1CCC[C@H]1C(=O)N[C@@H](CCCNC(=N)N)C(=O)N[C@@H](Cc1c[nH]cn1)C(=O)N[C@@H](CO)C(=O)N[C@@H](Cc1c[nH]c2ccccc12)C(=O)N[C@H](C(=O)N[C@@H](Cc1c[nH]c2ccccc12)C(=O)N[C@@H](CCC(=O)O)C(=O)N[C@H](CCCCN)C(=O)N[C@H](CCCCN)C(=O)N[C@H](CC(C)C)C(=O)N[C@H](CCC(=O)O)C(=O)N[C@@H](C(=O)N[C@H](C)C(=O)N[C@@H](C(=O)N[C@H](CC(N)=O)C(=O)N[C@H](CC(C)C)C(=O)N[C@H](C)C(=O)N[C@H](Cc1c[nH]c2ccccc12)C(=O)N[C@@H](C(=O)N[C@H](C)C(=O)NCC(=O)N[C@H](CC(N)=O)C(=O)N[C@H](CO)C(=O)N[C@H](CC(N)=O)C(=O)N[C@@H](CCCCN)C(=O)N[C@@H](Cc1c[nH]c2ccccc12)C(=O)N[C@H](C(=O)N[C@@H](Cc1c[nH]c2ccccc12)C(=O)N[C@@H](CCCCN)C(=O)O)[C@@H](C)O)[C@H](C)O)C(C)C)[C@H](C)O)[C@@H](C)O [Tf-D-LP4] | about 45% | 55.8 ± 1.0 | 73.9 ± 5.7
